Experimental data published in publication PMC9005681, “Use of AD Informer Set compounds to explore validity of novel targets in Alzheimer's disease pathology” (Alzheimer's & Dementia : Translational Research & Clinical …, 2022).
Several values for one entry are separate records, joined by “and”; a condition that tells them apart may be missing. Equal entries are not always repeated. Each block holds one compound with its values, some of them ahead of it.

Legend:
Assay in all cases: PDSP GPCR panel primary binding assays at 10 μM
[1] = molecular target: T1, cloned human or rodent CNS receptors, channels, and transporters (PDSP panel) (Homo sapiens, UniProt P14416); conditions: D2, primary assay; for Mean %: mean inhibition; for Inhibition 1: replicate 1; for Inhibition 2: replicate 2; for Inhibition 3: replicate 3; for Inhibition 4: replicate 4
T1 construct: expressed in transfected cells
T1 sequence (P14416 whole entry): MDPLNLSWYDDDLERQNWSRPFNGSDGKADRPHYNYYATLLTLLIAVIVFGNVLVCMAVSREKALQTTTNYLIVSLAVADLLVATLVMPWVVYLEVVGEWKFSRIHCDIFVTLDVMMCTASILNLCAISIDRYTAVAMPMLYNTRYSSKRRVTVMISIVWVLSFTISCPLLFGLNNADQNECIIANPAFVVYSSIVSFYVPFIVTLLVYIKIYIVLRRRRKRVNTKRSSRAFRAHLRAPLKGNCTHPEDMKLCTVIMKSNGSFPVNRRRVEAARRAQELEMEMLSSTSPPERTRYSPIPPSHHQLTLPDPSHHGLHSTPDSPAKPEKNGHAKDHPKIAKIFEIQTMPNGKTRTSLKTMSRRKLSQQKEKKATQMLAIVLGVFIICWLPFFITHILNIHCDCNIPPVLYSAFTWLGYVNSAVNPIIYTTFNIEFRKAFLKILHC
Protocol: (§1) GPCR panel: Screening against the receptors within the PDSP panel offers an assessment of off-target pharmacological activity at cloned human or rodent CNS receptors, channels, and transporters that could confound CNS-related phenotypes. A total of 46–47 primary binding assays were run in quadruplicate on these compounds at 10 μM, with follow-up secondary binding assays in 11-point dose-response in triplicate for select compounds versus select receptors. Secondary binding assays were executed for all receptors where test compound displaced an average of >50% of radio-labeled standard ligand. As an exception, no secondary assays were carried out for H3, PBR, or GABAA. […]

[2] = molecular target: T2, cloned human or rodent CNS receptors, channels, and transporters (PDSP panel) (Homo sapiens, UniProt P28566); conditions: 5-HT1E, primary assay; for Mean %: mean inhibition; for Inhibition 1: replicate 1; for Inhibition 2: replicate 2; for Inhibition 3: replicate 3; for Inhibition 4: replicate 4
T2 construct: expressed in transfected cells
T2 sequence (P28566 whole entry): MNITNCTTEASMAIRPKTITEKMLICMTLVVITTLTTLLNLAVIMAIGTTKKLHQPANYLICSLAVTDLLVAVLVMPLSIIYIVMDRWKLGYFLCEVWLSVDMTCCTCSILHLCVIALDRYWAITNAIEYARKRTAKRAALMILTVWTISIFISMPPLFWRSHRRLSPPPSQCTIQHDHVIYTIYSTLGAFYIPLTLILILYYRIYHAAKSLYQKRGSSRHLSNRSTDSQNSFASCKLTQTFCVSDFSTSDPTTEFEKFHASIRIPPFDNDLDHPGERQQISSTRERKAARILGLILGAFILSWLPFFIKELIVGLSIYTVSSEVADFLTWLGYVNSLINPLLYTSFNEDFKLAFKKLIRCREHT
Protocol: as §1

[3] = molecular target: T3, cloned human or rodent CNS receptors, channels, and transporters (PDSP panel) (Rattus norvegicus, UniProt P16257); conditions: PBR, primary assay; for Mean %: mean inhibition; for Inhibition 1: replicate 1; for Inhibition 2: replicate 2; for Inhibition 3: replicate 3; for Inhibition 4: replicate 4
T3 construct: expressed in transfected cells
Protocol: as §1

[4] = molecular target: T4, cloned human or rodent CNS receptors, channels, and transporters (PDSP panel) (Homo sapiens, UniProt P41145); conditions: KOR, primary assay; for Mean %: mean inhibition; for Inhibition 1: replicate 1; for Inhibition 2: replicate 2; for Inhibition 3: replicate 3; for Inhibition 4: replicate 4
T4 construct: expressed in transfected cells
T4 sequence (P41145 whole entry): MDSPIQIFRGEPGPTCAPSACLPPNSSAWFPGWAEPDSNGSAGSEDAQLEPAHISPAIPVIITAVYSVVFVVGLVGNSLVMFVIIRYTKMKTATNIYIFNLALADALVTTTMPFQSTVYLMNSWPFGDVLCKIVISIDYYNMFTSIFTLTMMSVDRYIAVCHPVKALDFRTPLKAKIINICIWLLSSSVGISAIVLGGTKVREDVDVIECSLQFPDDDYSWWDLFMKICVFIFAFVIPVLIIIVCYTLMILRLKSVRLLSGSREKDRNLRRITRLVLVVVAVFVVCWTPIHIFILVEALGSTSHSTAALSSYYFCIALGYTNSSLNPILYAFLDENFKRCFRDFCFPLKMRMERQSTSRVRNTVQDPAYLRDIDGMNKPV
Protocol: as §1

[5] = molecular target: T5, cloned human or rodent CNS receptors, channels, and transporters (PDSP panel) (Homo sapiens, UniProt P28335); conditions: 5-HT2C, primary assay; for Mean %: mean inhibition; for Inhibition 1: replicate 1; for Inhibition 2: replicate 2; for Inhibition 3: replicate 3; for Inhibition 4: replicate 4
T5 construct: expressed in transfected cells
T5 sequence (P28335 33-458): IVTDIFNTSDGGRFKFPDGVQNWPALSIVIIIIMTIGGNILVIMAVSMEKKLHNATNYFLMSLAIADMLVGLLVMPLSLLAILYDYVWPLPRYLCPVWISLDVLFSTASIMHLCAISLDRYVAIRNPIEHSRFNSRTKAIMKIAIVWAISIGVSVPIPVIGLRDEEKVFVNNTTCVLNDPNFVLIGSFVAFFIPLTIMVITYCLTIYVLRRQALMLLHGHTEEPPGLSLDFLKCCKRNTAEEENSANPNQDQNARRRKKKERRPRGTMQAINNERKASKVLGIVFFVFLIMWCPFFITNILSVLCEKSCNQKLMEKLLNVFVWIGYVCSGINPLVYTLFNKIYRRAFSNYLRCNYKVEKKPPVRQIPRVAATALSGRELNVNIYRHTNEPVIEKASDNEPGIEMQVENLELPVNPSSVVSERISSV
Protocol: as §1

[6] = molecular target: T6, cloned human or rodent CNS receptors, channels, and transporters (PDSP panel) (Homo sapiens, UniProt P08912); conditions: M5, primary assay; for Mean %: mean inhibition; for Inhibition 1: replicate 1; for Inhibition 2: replicate 2; for Inhibition 3: replicate 3; for Inhibition 4: replicate 4
T6 construct: expressed in transfected cells
T6 sequence (P08912 1-532): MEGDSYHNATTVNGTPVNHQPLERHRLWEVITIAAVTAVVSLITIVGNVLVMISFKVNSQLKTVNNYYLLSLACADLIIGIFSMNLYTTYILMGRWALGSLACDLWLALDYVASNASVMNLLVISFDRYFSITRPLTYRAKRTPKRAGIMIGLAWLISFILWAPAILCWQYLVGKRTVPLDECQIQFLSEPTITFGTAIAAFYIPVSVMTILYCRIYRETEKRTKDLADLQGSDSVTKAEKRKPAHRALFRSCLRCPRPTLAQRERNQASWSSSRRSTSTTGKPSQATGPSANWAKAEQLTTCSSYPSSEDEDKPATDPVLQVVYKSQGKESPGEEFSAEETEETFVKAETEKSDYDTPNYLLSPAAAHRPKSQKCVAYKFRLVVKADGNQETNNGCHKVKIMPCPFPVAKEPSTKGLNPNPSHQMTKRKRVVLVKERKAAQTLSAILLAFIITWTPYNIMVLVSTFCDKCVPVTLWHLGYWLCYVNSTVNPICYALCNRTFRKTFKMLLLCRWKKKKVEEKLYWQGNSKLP
Protocol: as §1

[7] = molecular target: T7, cloned human or rodent CNS receptors, channels, and transporters (PDSP panel) (Homo sapiens, UniProt P50406); conditions: 5-HT6, primary assay; for Mean %: mean inhibition; for Inhibition 1: replicate 1; for Inhibition 2: replicate 2; for Inhibition 3: replicate 3; for Inhibition 4: replicate 4
T7 construct: expressed in transfected cells
T7 sequence (P50406 whole entry): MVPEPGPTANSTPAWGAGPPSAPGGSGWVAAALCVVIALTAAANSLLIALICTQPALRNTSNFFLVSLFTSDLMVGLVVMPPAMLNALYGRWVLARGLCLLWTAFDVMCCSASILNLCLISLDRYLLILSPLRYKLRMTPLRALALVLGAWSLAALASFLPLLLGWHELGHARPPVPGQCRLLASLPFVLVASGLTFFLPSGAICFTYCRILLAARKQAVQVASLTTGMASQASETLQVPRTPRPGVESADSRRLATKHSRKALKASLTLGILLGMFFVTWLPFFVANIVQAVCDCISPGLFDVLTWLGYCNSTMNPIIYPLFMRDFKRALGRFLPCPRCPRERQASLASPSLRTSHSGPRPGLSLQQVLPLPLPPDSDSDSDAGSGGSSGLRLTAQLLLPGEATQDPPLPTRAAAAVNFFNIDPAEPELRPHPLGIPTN
Protocol: as §1

[8] = molecular target: T8, cloned human or rodent CNS receptors, channels, and transporters (PDSP panel) (Homo sapiens, UniProt P23975); conditions: NET, primary assay; for Mean %: mean inhibition; for Inhibition 1: replicate 1; for Inhibition 2: replicate 2; for Inhibition 3: replicate 3; for Inhibition 4: replicate 4
T8 construct: expressed in transfected cells
T8 sequence (P23975 whole entry): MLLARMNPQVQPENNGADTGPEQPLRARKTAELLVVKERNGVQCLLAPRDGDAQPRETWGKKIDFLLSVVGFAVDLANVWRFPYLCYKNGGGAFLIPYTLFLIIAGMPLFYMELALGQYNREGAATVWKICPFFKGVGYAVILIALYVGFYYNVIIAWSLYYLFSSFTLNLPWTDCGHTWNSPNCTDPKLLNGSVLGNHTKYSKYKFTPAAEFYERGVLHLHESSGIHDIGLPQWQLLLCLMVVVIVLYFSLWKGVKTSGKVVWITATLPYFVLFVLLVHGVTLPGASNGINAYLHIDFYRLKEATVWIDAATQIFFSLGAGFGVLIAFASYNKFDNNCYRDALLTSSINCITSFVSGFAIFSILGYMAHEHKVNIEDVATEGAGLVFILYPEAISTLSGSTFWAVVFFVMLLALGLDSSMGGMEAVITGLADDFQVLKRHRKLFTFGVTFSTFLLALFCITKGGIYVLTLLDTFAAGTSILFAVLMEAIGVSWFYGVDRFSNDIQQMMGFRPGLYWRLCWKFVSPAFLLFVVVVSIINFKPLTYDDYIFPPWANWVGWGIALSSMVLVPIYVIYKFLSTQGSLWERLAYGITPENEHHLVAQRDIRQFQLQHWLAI
Protocol: as §1

[9] = molecular target: T9, cloned human or rodent CNS receptors, channels, and transporters (PDSP panel) (Homo sapiens, UniProt P35462); conditions: D3, primary assay; for Mean %: mean inhibition; for Inhibition 1: replicate 1; for Inhibition 2: replicate 2; for Inhibition 3: replicate 3; for Inhibition 4: replicate 4
T9 construct: expressed in transfected cells
T9 sequence (P35462 whole entry): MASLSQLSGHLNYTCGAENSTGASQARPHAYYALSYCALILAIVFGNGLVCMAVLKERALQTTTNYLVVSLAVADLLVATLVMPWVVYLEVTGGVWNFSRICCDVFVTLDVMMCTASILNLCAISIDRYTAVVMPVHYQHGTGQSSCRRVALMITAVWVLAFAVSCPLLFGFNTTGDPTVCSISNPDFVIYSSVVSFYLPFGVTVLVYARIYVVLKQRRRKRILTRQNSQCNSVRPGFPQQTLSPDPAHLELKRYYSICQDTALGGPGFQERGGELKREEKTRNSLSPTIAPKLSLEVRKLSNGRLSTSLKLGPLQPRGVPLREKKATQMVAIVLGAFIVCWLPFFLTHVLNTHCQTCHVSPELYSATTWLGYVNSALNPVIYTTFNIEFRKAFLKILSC
Protocol: as §1

[10] = molecular target: T10, cloned human or rodent CNS receptors, channels, and transporters (PDSP panel) (Homo sapiens, UniProt P21728); conditions: D1, primary assay; for Mean %: mean inhibition; for Inhibition 1: replicate 1; for Inhibition 2: replicate 2; for Inhibition 3: replicate 3; for Inhibition 4: replicate 4
T10 construct: expressed in transfected cells
T10 sequence (P21728 whole entry): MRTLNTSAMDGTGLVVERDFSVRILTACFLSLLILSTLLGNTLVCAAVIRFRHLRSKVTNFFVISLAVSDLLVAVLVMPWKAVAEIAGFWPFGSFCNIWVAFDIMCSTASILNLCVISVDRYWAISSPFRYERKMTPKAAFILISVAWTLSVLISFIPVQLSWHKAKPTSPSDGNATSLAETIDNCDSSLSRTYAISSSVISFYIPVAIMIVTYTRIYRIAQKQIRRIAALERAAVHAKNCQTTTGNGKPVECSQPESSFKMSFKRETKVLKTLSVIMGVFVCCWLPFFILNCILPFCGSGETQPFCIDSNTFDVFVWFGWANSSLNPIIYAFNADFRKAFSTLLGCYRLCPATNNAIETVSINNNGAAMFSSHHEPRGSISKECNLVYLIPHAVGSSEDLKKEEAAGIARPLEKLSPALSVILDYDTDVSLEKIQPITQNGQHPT
Protocol: as §1

[11] = molecular target: T11, cloned human or rodent CNS receptors, channels, and transporters (PDSP panel) (Homo sapiens, UniProt P41595); conditions: 5-HT2B, primary assay; for Mean %: mean inhibition; for Inhibition 1: replicate 1; for Inhibition 2: replicate 2; for Inhibition 3: replicate 3; for Inhibition 4: replicate 4
T11 construct: expressed in transfected cells
T11 sequence (P41595 whole entry): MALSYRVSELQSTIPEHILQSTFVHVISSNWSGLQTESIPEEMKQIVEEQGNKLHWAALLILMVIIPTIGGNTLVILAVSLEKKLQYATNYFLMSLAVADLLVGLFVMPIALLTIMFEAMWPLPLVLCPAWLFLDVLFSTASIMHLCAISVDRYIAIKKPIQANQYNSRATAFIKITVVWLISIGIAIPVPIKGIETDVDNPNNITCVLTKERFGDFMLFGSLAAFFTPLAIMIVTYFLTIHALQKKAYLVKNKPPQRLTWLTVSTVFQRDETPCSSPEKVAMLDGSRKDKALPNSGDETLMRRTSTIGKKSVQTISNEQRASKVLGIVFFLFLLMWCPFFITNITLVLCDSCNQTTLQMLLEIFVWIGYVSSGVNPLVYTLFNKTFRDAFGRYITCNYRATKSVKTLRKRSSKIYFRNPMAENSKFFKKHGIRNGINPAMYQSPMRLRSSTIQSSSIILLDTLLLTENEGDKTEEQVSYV
Protocol: as §1

Mean % [1]: -7.22% | Inhibition 1 [1]: 3.31% | Inhibition 2 [1]: -5.21% | Inhibition 3 [1]: -10.66% | Inhibition 4 [1]: -16.31% | Mean % [2]: 1.71% | Inhibition 1 [2]: 1.79% | Inhibition 2 [2]: 6.56% | Inhibition 3 [2]: 8.79% | Inhibition 4 [2]: -10.29% | Mean % [3]: 61.99% and 50.52% | Inhibition 1 [3]: 64.51% and 57.62% | Inhibition 2 [3]: 61.79% and 51.24% | Inhibition 3 [3]: 61.7% and 45.98% | Inhibition 4 [3]: 59.94% and 47.25% | Mean % [4]: -10.86% | Inhibition 1 [4]: -18.36% | Inhibition 2 [4]: -17.69% | Inhibition 3 [4]: 0.34% | Inhibition 4 [4]: -7.72% | Mean % [5]: -14.6% | Inhibition 1 [5]: 12.76% | Inhibition 2 [5]: -11.29% | Inhibition 3 [5]: -33.87% | Inhibition 4 [5]: -26.01% | Mean % [6]: -6.81% | Inhibition 1 [6]: 1.27% | Inhibition 2 [6]: -10.6% | Inhibition 3 [6]: -10.81% | Inhibition 4 [6]: -7.08% | Mean % [7]: -6.87% | Inhibition 1 [7]: 12.58% | Inhibition 2 [7]: -11.55% | Inhibition 3 [7]: -17.27% | Inhibition 4 [7]: -11.23% | Mean % [8]: -0.13% and 6.71% | Inhibition 1 [8]: 26.63% and -24.8% | Inhibition 2 [8]: 1.57% and -7.07% | Inhibition 3 [8]: -2.48% and 7.39% | Inhibition 4 [8]: -26.22% and 51.32% | Mean % [9]: -12.51% | Inhibition 1 [9]: -10.05% | Inhibition 2 [9]: -18.34% | Inhibition 3 [9]: -11.4% | Inhibition 4 [9]: -10.24% | Mean % [10]: 9.96% | Inhibition 1 [10]: 12.39% | Inhibition 2 [10]: 11.9% | Inhibition 3 [10]: 10.77% | Inhibition 4 [10]: 4.78% | Mean % [11]: -22.71% | Inhibition 1 [11]: -0.89% | Inhibition 2 [11]: -25.64% | Inhibition 3 [11]: -26.48% | Inhibition 4 [11]: -37.81%
SMILES: CNc1nc(C)nc(N[C@H]2CCC[C@@H](C(=O)NCc3ccc(C#N)cc3C(F)(F)F)C2)n1 [UNC10302679A, GSK2256294A]

SMILES: CCC(=O)N1CCC(NC(=O)Nc2ccc(OC(F)(F)F)cc2)CC1 [UNC10302681A, TPPU]
Mean % [1]: -2.08% | Inhibition 1 [1]: 8.4% | Inhibition 2 [1]: -12.22% | Inhibition 3 [1]: -3.46% | Inhibition 4 [1]: -1.03% | Mean % [2]: -4.36% | Inhibition 1 [2]: 0.45% | Inhibition 2 [2]: -10.14% | Inhibition 3 [2]: -9.09% | Inhibition 4 [2]: 1.34% | Mean % [3]: 4.31% and 5.42% | Inhibition 1 [3]: 20.73% and 18.86% | Inhibition 2 [3]: -4.07% and -6.82% | Inhibition 3 [3]: -2.57% and 2.75% | Inhibition 4 [3]: 3.14% and 6.9% | Mean % [4]: -14.38% | Inhibition 1 [4]: -11.64% | Inhibition 2 [4]: -17.46% | Inhibition 3 [4]: -11.75% | Inhibition 4 [4]: -16.68% | Mean % [5]: -8.1% | Inhibition 1 [5]: 3.44% | Inhibition 2 [5]: -10.8% | Inhibition 3 [5]: -1.96% | Inhibition 4 [5]: -23.07% | Mean % [6]: -2.23% | Inhibition 1 [6]: 18.08% | Inhibition 2 [6]: -1.14% | Inhibition 3 [6]: -10.91% | Inhibition 4 [6]: -14.93% | Mean % [7]: -0.91% | Inhibition 1 [7]: 25.92% | Inhibition 2 [7]: -7.74% | Inhibition 3 [7]: -9.33% | Inhibition 4 [7]: -12.5% | Mean % [8]: 2.26% and 4.05% | Inhibition 1 [8]: -18.41% and 34.38% | Inhibition 2 [8]: -17.53% and 14.34% | Inhibition 3 [8]: 0.52% and -19% | Inhibition 4 [8]: 44.45% and -13.54% | Mean % [9]: -4.85% | Inhibition 1 [9]: -1.18% | Inhibition 2 [9]: -5.62% | Inhibition 3 [9]: -5.04% | Inhibition 4 [9]: -7.54% | Mean % [10]: -1.82% | Inhibition 1 [10]: -5.26% | Inhibition 2 [10]: -2.83% | Inhibition 3 [10]: -3.8% | Inhibition 4 [10]: 4.61% | Mean % [11]: 40.75% | Inhibition 1 [11]: 68.75% | Inhibition 2 [11]: 29.73% | Inhibition 3 [11]: 25.12% | Inhibition 4 [11]: 39.38%
